In one assay the test system is cultured human mast cells (CHMC). Description: CHMC low cell density IgE activation: tryptase assay. The class given is cell-based. Particulars: Homo sapiens, Mast cell, low cell density CHMC, IgE activation, tryptase release, 3 pt; read-out: LD Tryptase, CHMC, IgE, 3 pt. Here is the method:
Inhibition of degranulation was measured at both low and high cell density by quantifying the release of the granule specific factors tryptase, histamine and hexosaminidase. Inhibition of release and/or synthesis of lipid mediators was assessed by measuring the release of leukotriene LTC4 and inhibition of release and/or synthesis of cytokines was monitored by quantifying TNF-α, IL-6 and IL-13. Tryptase and hexosaminidase were quantified using fluorogenic substrates as described in their respective examples. […] The protocols of the various assays are provided below.
Pellet CHMC cells (980 rpm, 10 min) and resuspend in pre-warmed MT. Add 65 ul of cells to each 96-well plate. Depending on the degranulation activity for each particular CHMC donor, load 1000-1500 cells/well. Mix four times followed by a 1 hr incubation at 37° C. […] Stimulate cells by adding 25 ul of 6× anti-IgE solution to the appropriate plates. Add 25 ul MT to un-stimulated control wells. Mix twice following addition of the anti-IgE. Incubate at 37° C. for 30 minutes. […] Spin plates at 1000 rpm for 10 min to pellet cells. Transfer 25 ul of supernatant to a 96-well black bottom plate and add 100 ul of freshly diluted tryptase substrate solution to each well. Incubate plates at room temperature for 30 min.
With `O=C1CSc2ccc(Nc3nc(Nc4cccc(O)c4)ncc3F)cc2N1` [Compound 281], the IC50 was under 10 µM. Take `CC1(C)Sc2ccc(Nc3nc(Nc4ccc5cn[nH]c5c4)ncc3F)cc2NC1=O` [Compound 295]: the IC50 is under 10 µM. The same measure, in the same setting: then `COc1ccc(Nc2ncc(F)c(Nc3ccc4c(c3)NC(=O)C(C)(C)S4(=O)=O)n2)cc1F` [Compound 297], with under 10 µM; and `COc1ccc(Nc2ncc(F)c(Nc3ccc4c(c3)NC(=O)CS4)n2)cc1F` [Compound 300, 5-Fluoro-N2-(3-fluoro-4-methoxyphenyl)-N4-(3-oxo-2H,4H-benzo[1,4]thiazin-6-yl)-2,4-pyrimidinediamine], with under 10 µM; and `Cc1cc(C)cc(Nc2ncc(F)c(Nc3ccc4c(c3)NC(=O)CS4)n2)c1` [Compound 301], with under 10 µM. Take `Cn1ncc2ccc(Nc3ncc(F)c(Nc4ccc5c(c4)NC(=O)C(C)(C)S5)n3)cc21` [Compound 311]: the IC50 was under 10 µM. Still for that read-out and setting: then `COc1cc(Nc2ncc(F)c(Nc3cccc(OC(F)(F)F)c3)n2)cc(OC)c1` [Compound 324], with under 10 µM; and `Cc1cc(C)cc(Nc2ncc(F)c(Nc3cccc(OC(F)(F)F)c3)n2)c1` [Compound 325, N2-(3,5-Dimethylphenyl)-5-fluoro-N4-(3-trifluoromethoxyphenyl)-2,4-pyrimidinediamine], with under 10 µM; and `Fc1cnc(Nc2ccc3cc[nH]c3c2)nc1Nc1cccc(OC(F)(F)F)c1` [Compound 326, 5-Fluoro-N2-(indol-6-yl)-N4-(3-trifluoromethoxyphenyl)-2,4-pyrimidinediamine], with under 10 µM.

As to `COc1cc(Nc2ncc(F)c(Nc3cc(C)cc(C)c3)n2)cc(C(F)(F)F)c1` [Compound 329], the IC50 was under 10 µM. For the molecule `Cc1cc(C)cc(N(c2cc(C)cc(C(F)(F)F)c2)c2nc(N)ncc2F)c1` [Compound 330], the IC50 was under 10 µM.

Turning to `COc1cc(Nc2nc(Nc3cc(C)cc(C)c3)ncc2F)cc(C(F)(F)F)c1` [Compound 331], the IC50 is under 10 µM. The same measure, in the same setting: then `COc1cc(Nc2ncc(F)c(Nc3cc(OC)cc(C(F)(F)F)c3)n2)cc(OC)c1` [Compound 332, N2-(3,5-Dimethoxyphenyl)-5-fluoro-N4-(3-methoxy-5-trifluoromethylphenyl)-2,4-pyrimidinediamine], with under 10 µM. On the same count and under the same terms, then `COc1cc(Nc2ncc(F)c(Nc3cc(OC)cc(C(F)(F)F)c3)n2)cc(C(F)(F)F)c1` [Compound 333], with under 10 µM; and `COc1cc(Nc2nc(Nc3cc(C)cc(C(F)(F)F)c3)ncc2F)cc(C(F)(F)F)c1` [Compound 334], with under 10 µM.

The assay is the same for the next values; noted with them: Homo sapiens, Mast cell, low cell density CHMC, IgE activation, tryptase release, 8 pt; read-out: LD Tryptase, CHMC, IgE, 8 pt.
With `CC1Sc2ccc(Nc3nc(Nc4ccc5cn[nH]c5c4)ncc3F)cc2NC1=O` (centres unmarked) [Compound 277], the IC50 is under 10 µM. Still for that read-out and setting: then `CC1Sc2ccc(Nc3nc(Nc4ccc5[nH]ncc5c4)ncc3F)cc2NC1=O` (centres unmarked) [Compound 278], with under 10 µM; and `COc1ccc(Nc2ncc(F)c(Nc3ccc4c(c3)NC(=O)C(C)S4)n2)cc1Cl` (centres unmarked) [Compound 280], with under 10 µM; and `O=C1CSc2ccc(Nc3nc(Nc4cccc(O)c4)ncc3F)cc2N1` [Compound 281], with under 10 µM.

For `COc1cc(Nc2ncc(F)c(Nc3ccc4c(c3)NC(=O)CS4)n2)cc(OC)c1OC` [Compound 287], the IC50 is under 10 µM. Same read-out and setting: then `O=C1CSc2ccc(Nc3nc(Nc4ccc5[nH]ncc5c4)ncc3F)cc2N1` [Compound 288], with under 10 µM; and `COc1cc(Nc2ncc(F)c(Nc3ccc4c(c3)NC(=O)C(C)(C)S4)n2)cc(OC)c1` [Compound 290], with under 10 µM; and `Cc1cc(C)cc(Nc2ncc(F)c(Nc3ccc4c(c3)NC(=O)C(C)(C)S4)n2)c1` [Compound 291], with under 10 µM. Still for that read-out and setting: then `COc1cc(Nc2ncc(F)c(Nc3ccc4c(c3)NC(=O)C(C)(C)S4)n2)cc(OC)c1OC` [Compound 292], with under 10 µM; and `CC1(C)Sc2ccc(Nc3nc(Nc4cccc(O)c4)ncc3F)cc2NC1=O` [Compound 293], with under 10 µM.

For `CC1(C)Sc2ccc(Nc3nc(Nc4ccc5cn[nH]c5c4)ncc3F)cc2NC1=O` [Compound 295], the IC50 was under 10 µM. On to `COc1ccc(Nc2ncc(F)c(Nc3ccc4c(c3)NC(=O)C(C)(C)S4(=O)=O)n2)cc1F` [Compound 297], for which the IC50 is under 10 µM. In the case of `COc1ccc(Nc2ncc(F)c(Nc3ccc4c(c3)NC(=O)CS4)n2)cc1F` [Compound 300, 5-Fluoro-N2-(3-fluoro-4-methoxyphenyl)-N4-(3-oxo-2H,4H-benzo[1,4]thiazin-6-yl)-2,4-pyrimidinediamine], the IC50 is under 10 µM. Same read-out and setting: then `Cc1cc(C)cc(Nc2ncc(F)c(Nc3ccc4c(c3)NC(=O)CS4)n2)c1` [Compound 301], with under 10 µM; and `Cc1cc(C)cc(Nc2ncc(F)c(Nc3ccc4c(c3)NC(=O)CS4(=O)=O)n2)c1` [Compound 302], with under 10 µM; and `COc1cc(Nc2ncc(F)c(Nc3ccc4c(c3)NC(=O)CS4(=O)=O)n2)cc(OC)c1` [Compound 303], with under 10 µM.

In the case of `COc1ccc(Nc2ncc(F)c(Nc3ccc4c(c3)NC(=O)CS4(=O)=O)n2)cc1Cl` [Compound 304], the IC50 is under 10 µM. Same read-out and setting: then `O=C1CS(=O)(=O)c2ccc(Nc3nc(Nc4ccc5cn[nH]c5c4)ncc3F)cc2N1` [Compound 307], with under 10 µM; and `O=C1CS(=O)(=O)c2ccc(Nc3nc(Nc4cccc(O)c4)ncc3F)cc2N1` [Compound 308], with under 10 µM; and `COc1ccc(Nc2ncc(F)c(Nc3ccc4c(c3)NC(=O)CS4(=O)=O)n2)cc1F` [Compound 309], with under 10 µM. The same measure, in the same setting: then `O=C1CS(=O)(=O)c2ccc(Nc3nc(Nc4ccc5[nH]ncc5c4)ncc3F)cc2N1` [Compound 310], with under 10 µM. Same read-out and setting: then `Cn1ncc2ccc(Nc3ncc(F)c(Nc4ccc5c(c4)NC(=O)C(C)(C)S5)n3)cc21` [Compound 311], with under 10 µM.

`Fc1cnc(Nc2ccc3cc[nH]c3c2)nc1Nc1cccc(OC(F)(F)F)c1` [Compound 326, 5-Fluoro-N2-(indol-6-yl)-N4-(3-trifluoromethoxyphenyl)-2,4-pyrimidinediamine]: the IC50 is under 10 µM.

With `COc1cc(Nc2ncc(F)c(Nc3cc(C)cc(C)c3)n2)cc(OC)c1` [Compound 328], the IC50 is under 10 µM.

In the case of `COc1cc(Nc2nc(Nc3cc(OC)c(OC)c(OC)c3)ncc2F)cc(C(F)(F)F)c1` [Compound 335], the IC50 was under 10 µM.

The same assay, now with this note: low cell density CHMC, IgE activation, tryptase release, 3 pt; read-out: LD Tryptase, CHMC, IgE, 3 pt.
On to `CNC(=O)COc1cccc(Nc2ncc(F)c(Nc3ccc4c(c3)NC(=O)C(C)(C)S4)n2)c1` [Compound 294, N4-(2,2-Dimethyl-3-oxo-4H-benzo[1,4]thiazin-6-yl)-5-fluoro-N2-[3-(N-methylamino)carbonylmethyleneoxyphenyl]-2,4-pyrimidinediamine], for which the IC50 was under 10 µM. As for `COc1ccc(Nc2ncc(F)c(Nc3ccc4c(c3)NC(=O)C(C)(C)S4)n2)cc1F` [Compound 299], the IC50 is under 10 µM.

For `O=C1CSc2ccc(Nc3nc(Cl)ncc3F)cc2N1` [Compound 313, N2-Chloro-5-fluoro-N4-(3-oxo-2H,4H-benzo[1,4]thiazin-6-yl)-4-pyrimidineamine], the IC50 is under 10 µM. Regarding `O=C1CS(=O)(=O)c2ccc(Nc3nc(Cl)ncc3F)cc2N1` [Compound 315, N2-Chloro-5-fluoro-N4-(1,1,3-trioxo-2H,4H-benzo[1,4]thiazin-6-yl)-4-pyrimidineamine], the IC50 was over 10 µM.

Take `CC1(C)Sc2ccc(Nc3nc(Cl)ncc3F)cc2NC1=O` [Compound 316, N2-Chloro-N4-(2,2,-dimethyl-3-oxo-4H-benzo[1,4]thiazin-6-yl)-5-fluoro-4-pyrimidineamine]: the IC50 was under 10 µM. Still for that read-out and setting: then `CC1(C)C(=O)Nc2cc(Nc3nc(Cl)ncc3F)ccc2S1(=O)=O` [Compound 318, N2-Chloro-N4-(2,2-dimethyl-1,1,3-trioxo-4H-benzo[1,4]thiazin-6-yl)-5-fluoro-4-pyrimidineamine], with under 10 µM; and `CC1(C)COc2ccc(Nc3nc(Cl)ncc3F)cc2N1` [Compound 320, N2-Chloro-N4-(3,3-dimethyl-1,4-benzoxazin-6-yl)-5-fluoro-pyrimidineamine], with under 10 µM; and `CNC(=O)COc1cccc(Nc2ncc(F)c(Nc3ccc4ccn(C(=O)NC)c4c3)n2)c1` [Compound 327, 5-Fluoro-N4-[1-(N-methylamino)carbonylindol-6-yl]-N2-[3-(N-methylamino)carbonylmethyleneoxyphenyl]-2,4-pyrimidinediamine], with under 10 µM.

The assay is the same for the next values; noted with them: low cell density CHMC, IgE activation, tryptase release, 8 pt; read-out: LD Tryptase, CHMC, IgE, 8 pt.
Turning to `COc1ccc(Nc2ncc(F)c(Nc3ccc4c(c3)NC(=O)C(C)(C)S4(=O)=O)n2)cc1Cl` [Compound 276], the IC50 is under 10 µM. Same read-out and setting: then `CNC(=O)COc1cccc(Nc2ncc(F)c(Nc3ccc4c(c3)NC(=O)C(C)S4)n2)c1` (centres unmarked) [Compound 279, 5-Fluoro-N2-[3-(N-methylamino)carbonylmethyleneoxyphenyl]-N4-(2-methyl-3-oxo-2H,4H-benzo[1,4]thiazin-6-yl)-2,4-pyrimidinediamine], with under 10 µM; and `CC1(C)C(=O)Nc2cc(Nc3nc(Nc4cccc(O)c4)ncc3F)ccc2S1(=O)=O` [Compound 283, racemic-N4-(2,2-Dimethyl-1,1,3-trioxo-4H-benzo[1,4]thiazin-6-yl)-5-fluoro-N2-[3-hydoxyphenyl]-2,4-pyrimidinediamine], with under 10 µM; and `COc1ccc(Nc2ncc(F)c(Nc3ccc4c(c3)NC(=O)C(C)(C)S4)n2)cc1Cl` [Compound 289], with under 10 µM.

For the molecule `CNC(=O)COc1cccc(Nc2ncc(F)c(Nc3ccc4c(c3)NC(=O)C(C)(C)S4)n2)c1` [Compound 294, N4-(2,2-Dimethyl-3-oxo-4H-benzo[1,4]thiazin-6-yl)-5-fluoro-N2-[3-(N-methylamino)carbonylmethyleneoxyphenyl]-2,4-pyrimidinediamine], the IC50 was under 10 µM. Still for that read-out and setting: then `COc1ccc(Nc2ncc(F)c(Nc3ccc4c(c3)NC(=O)C(C)(C)S4)n2)cc1F` [Compound 299], with under 10 µM; and `CNC(=O)COc1cccc(Nc2ncc(F)c(Nc3ccc4c(c3)NC(=O)CS4(=O)=O)n2)c1` [Compound 305, 5-Fluoro-N2-[3-(N-methylamino)carbonylmethyleneoxyphenyl]-N4-(1,1,3-trioxo-2H,4H-benzo[1,4]thiazin-6-yl)-2,4-pyrimidinediamine], with under 10 µM. The same measure, in the same setting: then `COc1cc(Nc2ncc(F)c(Nc3ccc4c(c3)NC(=O)CS4(=O)=O)n2)cc(OC)c1OC` [Compound 306, 5-Fluoro-N2-(3,4,5-triimethoxylphenyl)-N4-(1,1,3-trioxo-2H,4H-benzo[1,4]thiazin-6-yl)-2,4-pyrimidinediamine], with under 10 µM.
